Data taken from article PMC10238420, “Altered Signaling and Desensitization Responses in PTH1R Mutants Associated with Eiken Syndrome” (Communications Biology, 2023).
Read-outs that look alike come from different tables or passages of the source.

How the values were obtained:
PTH1R-R485X [1] = details: 30 nM, 30 min, RT
Method: (§3) To visualize receptors on the surface of non-stimulated cells, cells were fixed with 3.7% paraformaldehyde for 5 min at room temperature, incubated for 1 hour at room temperature with anti-HA mouse monoclonal primary antibody (anti-HA.11, BioLegend, Cat. No. 901513), rinsed, incubated for 1 h at room temperature with a goat-anti-mouse IgG secondary antibody poly-conjugated to HRP (poly-HRP-anti-mIgG; ThermoFisher Scientific, Cat. No. 32230), stained with Tyramide-Alexafluor-594 (Tyr^594; Tyramide SuperBoost Kit ThermoFisher Scientific, Cat. No. B4092), then mounted on a glass microscope slide in Vectashield containing DAPI and imaged using a Nikon Eclipse fluorescence microscope at 400X magnification.

PTH1R-WT [2] = target: T1, PTH1R-WT (Homo sapiens, UniProt Q03431); assay: Visualization of surface receptors after PTH(1-34)FAM pre-stimulation; format: cell-based; details: 30 nM, 30 min, RT
Method: as §3

PTH1R-R485X [3] = details: 100 nM
Method: Data are means ± SEM of three separate experiments, with triplicate wells in each.
Basal and ligand-stimulated cAMP signaling was assessed via the glosensor cAMP reporter in Gs22a cells transiently transfected to express either the WT or a mutant hPTH1R in white 96-well plates at room temperature. […] The plate was then placed into a PerkinElmer Envision plate reader and luminescence, as counts per second (cps), was measured at 2-min intervals for 15 min, during which time luciferin uptake occurred and luminescence reached a near steady-state baseline level. The plate was then removed from the plate reader, CIDB alone (vehicle) or containing a test ligand at varying concentrations was added, and luminescence was again measured at 2 min intervals for an additional 30–60 min.

PTH1R-R485X [4] = details: PTH(1-34) 1 nM
Method: was added and moni t or i ng c ont i nued f or an addi t i onal 30 mi nut es .
shown in panel a. c) Cel l s wer e pr et r eat ed f or 15 mi nut es wi t h ei t her DMSO or Dy ngo4a ( 30 uM) , t hen
mi nut es ( agoni s t-was hout phas e) . T he AUCs of t he 90-mi nut e agoni s t-was hout r es pons es f or eac h
wi t h v ehi c l e dur i ng t he agoni s t-was hout phas e ( 100%) .

PTH1R-H223R [5] = target: T2, PTH1R-H223R (Homo sapiens, UniProt Q03431, H223R); assay: Inverse agonist effect on basal cAMP, Gs22a cells; format: cell-based; details: 100 nM
From the text: Minutes Minutes [PTHrP(7-36)] Log M
+Veh. +SW +Veh. +SW +Veh.+SW +Veh. +SW +SW
DMSO Dyngo+Veh. DMSO Dyngo+Veh. DMSO Dyngo+Veh. DMSO Dyngo+Veh. DMSO DMSO Dyngo+Veh.Dyngo+SW
Suppl ement al Fi gure 9.
Dat a f or PT H1R-H223R and
DMSO+PTHrP(7-36) Dyngo+Veh. Dyngo+PTHrP(7-36) DMSO+Veh. DMSO+SW106Dyngo+Veh. […] DMSO+SW106Dyngo+Veh. Dyngo+SW106 PTH1R-R485X DMSO+Veh. DMSO+SW106Dyngo+Veh. Dyngo+SW106 ##* DMSO+Veh. DMSO+SW106Dyngo+Veh. Dyngo+SW106 ##*** DMSO+Veh. DMSO+SW106Dyngo+Veh. Dyngo+SW106 PTH1R-H223R)

PTH1R-E35K [6] = target: T3, PTH1R-E35K (Homo sapiens, UniProt Q03431, E35K); assay: cAMP time course with ligand and after ligand washout (duration), Gs22a cells; format: cell-based; details: 10 nM, 30 min pretreatment
Method: (§4) Data are means (±SEM) of five (a), four (b, c, e) or three (d) separate experiments.
(§5) Fig. 7 Effects of Eiken mutation on duration of cAMP signaling and desensitization to ligand re-challenge. a Assays were performed in Gs22a cells transiently transfected to express PTH1R-WT or a mutant PTH1R. a Duration of initial cAMP signaling response. […] Response to Ligand rechallenge. After the washout-periods shown in panel a, the cells were rechallenged with the same ligand (1.0 nM) for 60 min and cAMP accumulation was assessed. […] P values indicate comparison by Student’s t test to pre-vehicle treatment: Data are means ± SEM from four separate experiments each in duplicate (b) or quadruplicate (a).
(§6) Basal and ligand-stimulated cAMP signaling was assessed via the glosensor cAMP reporter in Gs22a cells transiently transfected to express either the WT or a mutant hPTH1R in white 96-well plates at room temperature. […] The plate was then placed into a PerkinElmer Envision plate reader and luminescence, as counts per second (cps), was measured at 2-min intervals for 15 min, during which time luciferin uptake occurred and luminescence reached a near steady-state baseline level. The plate was then removed from the plate reader, CIDB alone (vehicle) or containing a test ligand at varying concentrations was added, and luminescence was again measured at 2 min intervals for an additional 30–60 min. […]

PTH1R-E35K [7] = target: T3, PTH1R-E35K; assay: BRET β-arrestin2 recruitment to early endosomes (rGFP-FYVE), HEK293; format: cell-based
From the text: (§1) Images are representative of three independent experiments.
(§2) Scale bars in a and c indicate 10 μm.

PTH1R-E35K [8] = target: T3, PTH1R-E35K; assay: BRET β-arrestin2 recruitment to plasma membrane (rGFP-CAAX), HEK293; format: cell-based
From the text: as §1, §2

PTH1R-R485X [9] = details: 10 nM unlabeled peptide
Method: as §1
Data are representative of three independent experiments (a-d); or means ± SEM of three or four independent experiments (e, f). Bar heights in graphs of panels b and d indicate the means ± SEM of counts from the five cells shown by the individual data points. Scale bars in a and c indicate 10 μm.
Ligand-induced recruitment of β-arrestin2^YFP was assessed in GBR-24 cells, which are HEK293/glosensor (Gs22A)-derived cells stably expressing β-arrestin2^YFP [42]. The cells in six-well plates were transiently transfected with plasmid DNA encoding PTH1R-WT or mutant derivative, and 24 hours later seeded onto glass coverslips in 6-well plates. […] In some experiments, the cells were imaged by confocal microscopy using a Leica DMi8 inverted Microscope at ×400 magnification, and the images were processed using Leica Application Suite X (LAS X) software. Regions of interest were digitally expanded 3-5X to improve views.
Quantification of β-arrestin2^YFP clusters was performed using ImageJ software (vers. 1.53)[67]. The color images were converted to 8 bit and then 16 bit gray-scale, and the threshold was adjusted on a cell-by-cell basis to show distinct particles (interpreted as clusters of β-arrestin2^YFP in intracellular vesicles); threshold values ranged from ~ 20-60. The free-hand tool was used to define the area analyzed for each cell, and the Analyze Particle tool was used to obtain the number of particles, the total area, and the mean gray scale (intensity) of each particle for each cell.

PTH1R-E35K [10] = target: T3, PTH1R-E35K; assay: Fluorescence microscopy of ligand internalization and β-arrestin2YFP recruitment, GBR-24 cells, ImageJ; format: cell-based; details: 10 nM unlabeled peptide
From the text: as §1, §2

PTH1R-Y134S [11] = target: T4, PTH1R-Y134S (Homo sapiens, UniProt Q03431, Y134S); assay: as above; format: cell-based; details: 10 nM unlabeled peptide
From the text: as §1, §2

PTH1R-Y134S [12] = target: T4, PTH1R-Y134S; assay: cAMP time course with ligand and after ligand washout (duration), Gs22a cells; format: cell-based; details: 10 nM, 30 min pretreatment
Method: as §4, §5, §6

PTH1R-E35K [13] = target: T3, PTH1R-E35K; assay: Glosensor cAMP agonist dose-response, Gs22a cells; format: cell-based; details: % of maximum response of each ligand on PTH1R-WT; five experiments
PTH1R-H223R [14] = target: T2, PTH1R-H223R; assay: Glosensor cAMP agonist dose-response, Gs22a cells; format: cell-based; details: % of maximum response of each ligand on PTH1R-WT; five experiments
PTH1R-WT [15] = target: T1, PTH1R-WT; assay: Glosensor cAMP agonist dose-response, Gs22a cells; format: cell-based; details: % of maximum response of each ligand on PTH1R-WT; five experiments
PTH1R-Y134S [16] = target: T4, PTH1R-Y134S; assay: Glosensor cAMP agonist dose-response, Gs22a cells; format: cell-based; details: % of maximum response of each ligand on PTH1R-WT; five experiments
PTH1R-R485X [17] = target: PTH1R-R485X (Homo sapiens, UniProt Q03431); assay: cell-based
PTH1R-H223R [18] = target: T2, PTH1R-H223R; assay: Total binding of 125I-PTHrP(1-36), intact Gs22a cells
Method: (§7) Binding was assessed on confluent monolayers of transiently transfected intact Gs22a cells in 96-well plates. Binding reactions contained HB and 20,000–30,000 cpm/well of radioligand. […] The mixtures were then removed and the cells were rinsed twice with HB and lysed with 5 N NaOH and the lysates were counted for gamma irradiation in a gamma counter. […] After incubation for 2 h at 4 °C, the mixtures were removed, the cells were rinsed twice with HB, lysed with 5N NaOH, and the lysates were counted for gamma irradiation.

PTH1R-E35K [19] = target: T3, PTH1R-E35K; assay: as above
Method: as §7

PTH1R-R485X [20] = test system: PTH1R-R485X
Method: as §7

PTH1R-Y134S [21] = target: T4, PTH1R-Y134S; assay: Total binding of 125I-PTHrP(1-36), intact Gs22a cells
Method: as §7

In the case of “SVSEIQL MH N L GfKH L N SMER VEWL R KKL QD VH N F.OH [PTH(1-34)FAM, 5(6)-carboxyfluorescein attached to the epsilon amino function of lysine-13]”, the “ligand internalization, in words” value (PTH1R-R485X [1]) is reported as “observed mainly in internalized clusters” and the “ligand internalization, in words” value (PTH1R-WT [2]) is reported as “observed mainly in internalized clusters”.
For “LLHDLdWKSIQD L R R R FWL H H L IAEIH TAEY.N H 2 [dTrp^12-PTHrP(7-36), [Leu^11,dTrp^12,Trp^23,Tyr^36]-PTHrP(7–36)NH2, antagonist/inverse agonist analog]”, the “effect on basal cAMP, in words” value (PTH1R-R485X [3]) was “rapid decreases in the intracellular cAMP levels”, the “inhibition of subsequently added PTH(1-34) cAMP signaling, in words” value (PTH1R-R485X [4]) was “dose-dependent inhibition of cAMP signaling” and the “effect on basal cAMP, in words” value (PTH1R-H223R [5]) was “rapid decreases in the intracellular cAMP levels”.
“AVSEIQL L H D KGKSIQD L R R R FFL H H L IAEIH TAEI.N H2 [Ile^5-PTHrP(1-36)]” was tested, and the “duration of cAMP response vs His5-PTHrP(1-36), in words” value (PTH1R-E35K [6]) was “more sustained cAMP signaling response”, the “potency ratio vs PTHrP(1-36)” value (PTH1R-E35K [7]) was about 10 fold and the “potency vs PTH(1-34), in words” value (PTH1R-E35K [7]) was “as potent as PTH(1-34)”. The “potency ratio vs PTHrP(1-36)” value (PTH1R-E35K [8]) was about 10 fold, the “potency vs PTH(1-34), in words” value (PTH1R-E35K [8]) was “as potent as PTH(1-34)” and the “co-clustering of β-arrestin2YFP, in words” value (“co-clustering” for short) (PTH1R-R485X [9]) was “not”. The “co-clustering” value (PTH1R-E35K [10]) was “r obust co-clust ering”, the “co-clustering” value (PTH1R-Y134S [11]) was “r obust co-clust ering” and the “duration of cAMP response vs His5-PTHrP(1-36), in words” value (PTH1R-Y134S [12]) was “more sustained cAMP signaling response”.
With `CC[C@H](C)[C@H](NC(=O)[C@H](CCC(=O)O)NC(=O)[C@H](CO)NC(=O)[C@@H](NC(=O)[C@@H](N)CO)C(C)C)C(=O)N[C@@H](CCC(N)=O)C(=O)N[C@@H](CC(C)C)C(=O)N[C@@H](CCSC)C(=O)N[C@@H](Cc1c[nH]cn1)C(=O)N[C@@H](CC(N)=O)C(=O)N[C@@H](CC(C)C)C(=O)NCC(=O)N[C@@H](CCCCN)C(=O)N[C@@H](Cc1c[nH]cn1)C(=O)N[C@@H](CC(C)C)C(=O)N[C@@H](CC(N)=O)C(=O)N[C@@H](CO)C(=O)N[C@@H](CCSC)C(=O)N[C@@H](CCC(=O)O)C(=O)N[C@@H](CCCNC(=N)N)C(=O)N[C@H](C(=O)N[C@@H](CCC(=O)O)C(=O)N[C@@H](Cc1c[nH]c2ccccc12)C(=O)N[C@@H](CC(C)C)C(=O)N[C@@H](CCCNC(=N)N)C(=O)N[C@@H](CCCCN)C(=O)N[C@@H](CCCCN)C(=O)N[C@@H](CC(C)C)C(=O)N[C@@H](CCC(N)=O)C(=O)N[C@@H](CC(=O)O)C(=O)N[C@H](C(=O)N[C@@H](Cc1c[nH]cn1)C(=O)N[C@@H](CC(N)=O)C(=O)N[C@@H](Cc1ccccc1)C(N)=O)C(C)C)C(C)C` [PTH(1-34)] the Emax (PTH1R-E35K [13]) was 106 ± 5%, the Emax (PTH1R-H223R [14]) was 48 ± 6% and the Emax (PTH1R-WT [15]) was 100%. The Emax (PTH1R-Y134S [16]) was 96 ± 4%, the Emax (PTH1R-R485X [17]; read-out: Emax of that attained on PTH1R-WT) was about 80% and the Emax (PTH1R-R485X [17]; read-out: cAMP Emax) was 81 ± 10%.
For “AVSEH QL L H D KGKSIQD L R R R FFL H H L IAEIH TAEY.N H 2 [125I-PTHrP(1-36), radioligand prepared by chloramine T oxidation with 125I-Na]”, the “total binding vs PTH1R-WT, in words” value (PTH1R-H223R [18]) was “comparable to that on PTH1R-WT”, the “reduction of total binding vs PTH1R-WT” value (PTH1R-E35K [19]) was ~ 50% and the “total binding vs PTH1R-WT, in words” value (PTH1R-R485X [20]) was “comparable to that on PTH1R-WT”. The “reduction of total binding vs PTH1R-WT” value (PTH1R-Y134S [21]) was ~ 50%.
